Key:
[1] = system: colorectal cancer cells (LoVo, SW48) with altered MATE1; experiment: Proliferation with MATE1 over-expressed on LoVo or interfered on SW48; format: cell-based, human; conditions: FIGS. 12E-F
[2] = system: KRAS mutation CRC cells LoVo; experiment: Cell viability (CCK-8 method); format: cell-based, human
Experimental: (§1) The cells were inoculated on a plate according to the concentration of 5000 cells/well (48-well plate, 200 μl per well). The cells were treated with different ways according to the experimental requirements, and 10 μl CCK8 solution was added after a period of time. The cells were incubated for 1 h in an incubator; 200 μl supernatant were absorbed into a 96-well ELISA plate to determine OD450 with a microplate reader.
(§2) (2) Metformin with a gradient concentration was used in vitro to treat KRAS wildtype colorectal cancer cell lines SW48 and CaCO2, KRAS G13D-mutation colorectal cancer cell lines HCT-116 and LoVo, as well as KRAS G12V-mutation colorectal cancer cell lines SW480 and SW620. In addition, the metformin with a gradient concentration was used to treat the KRAS wildtype colorectal cancer cell line SW48 transfected with KRAS G12V, KRAS G13D and KRAS G12D plasmids.
(§3) 5 μM and 10 μM lansoprazole were used to treat HCT-116 and LoVo simultaneously; metformin was used to treat the cells at the same time for 48 h; the cell viability was detected by CCK8.

[3] = system: KRAS mutation CRC cells HCT-116; experiment: Cell viability (CCK-8 method); format: cell-based, human
Experimental: as §1, §2, §3

[4] = system: KRAS wildtype colorectal cancer cells; experiment: Cell viability, metformin with a gradient concentration; format: cell-based, human; conditions: FIG. 6
Experimental: as §1, §2

[5] = system: metastatic colorectal cancer (mCRC) patients with T2DM; experiment: Retrospective study of OS and PFS of first-line chemotherapy in mCRC patients with T2DM (Kaplan-Meier, stratified Cox proportional hazard model), SYSUCC 2004-2016; format: in vivo, human
Text: General clinical characteristics of the patients, such as, sex, age and body mass index (BMI) and the clinical characteristics affecting mCRC prognosis in the existing research reports (such as, primary tumor site, pathological grading, metastatic site, first-line chemotherapy regimen and KRAS genotype) were collected to exclude confounding factors, thus making the influences of metformin on the overall survival (OS) of the mCRC patients with T2DM and the progression free survival (PFS) of the first-line chemotherapy clear.
GraphPad Prism 7 was used to draw a Kaplan-Meier curve, and Log-rank (Mantel-Cox) statistical analysis was performed; stratified HR was additionally used to make a statistics on the influences on OS and PFS between different hypoglycemic agents use and the without anti-diabetic treatments.
A stratified Cox proportional hazard model was used for stratification on the above collected clinical characteristics to explore the individual factors influencing the efficacy of metformin.
After through the proportional hazard assumption, it is further assumed that sex, age, BMI, primary tumor site, pathological grading, metastatic site, and KRAS genotype may serve as confounding factors to make an impact on the anti-tumor effect of metformin. Therefore, hierarchical regression analysis was performed on the above clinical characteristics, thus determining the individual difference interacting with metformin.

[6] = system: KRAS mutation PDX tumor; experiment: PDX model, tumor size and weight; format: in vivo, BALB/c nude mice; conditions: compared with KRAS wildtype tumor model; 200 mg/kg in water, 30 d, FIG. 7
Experimental: Use of the PDX model: tumor tissues from the clinical KRAS wildtype and mutation CRC patients were taken, the tumor cells were cultured with a digestion process; after identifying the KRAS mutation, the tumor cells were planted in an axillary fossa area of nude mice.
1) Collection of patients' tumor specimens: cancer tissues with non-necrotic edges were taken from specimens obtained after excision, and soaked into a PRMI1640 culture solution containing 5% fetal calf serum, 1×penicillin and streptomycin double-antibodies, and then transported at 4° C.;
2) the tumor tissues were cut into small pieces having a size of about 2×2×2 mm on a super clean bench, and cleaned for 3 times with the above culture solution to remove extravasated blood; […]
7) when the transplanted tumor grew to 100-200 mm^3, the nude mice were administered intragastrically everyday at 9:00 a.m. for consecutive 28 d. […] The size of the transplanted tumor was measured everyday, volume (mm^3)=[length×width^2]/2;
8) the nude mice were killed 30 d layer, and tumor tissues were taken, shoot, measured, embedded and sliced.
200 mg/kg (equivalent to human 1000 mg) metformin was dissolved into water, and respectively taken by KRAS wildtype and mutation animals; then the tumor size was measured; 30 d later, the tumor tissues were killed and weighed.

[7] = system: LoVo cell line with knock-down KRAS protein; experiment: Cell viability in KRAS knock-down cells; format: cell-based, human; conditions: relative to LoVo, FIG. 8D
Experimental: 2) LoVo cells were subcultured to a 6-well plate (about 1×10^5/well), when cells were subjected to adherence growth, and the degree of cell fusion was not greater than 50%, fresh culture solution was replaced ahead of 2 h, and 10 μg/mL lentivirus infection enhancer polybrene was added. Multiplicity of Infection (MOI) of LoVo was about 20; lentivirus was added according to the formula: adding amount of lentivirus per well (μl)=MOI×cell population/titer (TU/ml)×1000. The culture solution was replaced after 16-18 h, and 1 μM puromycin was conventionally added for screening the cell line whose RNA stable expression was interfered by KRAS.

[8] = with 5 μM and 10 μM lansoprazole, 48 h, FIGS. 11A-B
[9] = metformin use vs non-metformin use, Age at diagnosis <60 years
[10] = metformin use vs non-metformin use, Age at diagnosis ≥60 years
[11] = metformin use vs non-metformin use, BMI Normal (18.5~23.0)
[12] = metformin use vs non-metformin use, BMI Pre- & obese (>23.0)
[13] = metformin use vs non-metformin use, KRAS genotype Wildtype
[14] = metformin use vs non-metformin use, Metastatic site Liver
[15] = metformin use vs non-metformin use, Metastatic site Multiple sites
[16] = metformin use vs non-metformin use, Moderately differentiated
[17] = metformin use vs non-metformin use, Poorly & un-differentiated
[18] = metformin use vs non-metformin use, Primary site Left colon
[19] = metformin use vs non-metformin use, Primary site Rectum
[20] = metformin use vs non-metformin use, Primary site Right colon
[21] = metformin use vs non-metformin use, Sex: Female
[22] = metformin use vs non-metformin use, Sex: Male
[23] = vs nonusers of hypoglycemic agents, stratified by age at diagnosis, adjusted for sex, BMI, primary site, metastatic site, pathological grading, KRAS genotype

Structure (SMILES): CN(C)C(=N)N=C(N)N [metformin]
- inhibiting effect on proliferation with down-regulated expression of MATE1 [1]: accelerating the inhibiting effect
- IC50 ([2]; Homo sapiens, LoVo, CCK8, FIG. 10): 8.18 mM
- increase of IC50 of metformin after lansoprazole [2, 8]: 1.2-2.5 times
- IC50 ([3]; Homo sapiens, HCT-116, CCK8, FIG. 10): 23.7 mM
- increase of IC50 of metformin after lansoprazole [3, 8]: 1.2-2.5 times
- effect on cell viability [4]: has no effect
- overall survival, Kaplan-Meier curve ([5]; KRAS mutation mCRC patients, P<0.001, FIGS. 3A-B): significantly extends
- progression free survival of first-line chemotherapy, Kaplan-Meier curve ([5]; KRAS mutation mCRC patients, P<0.01, FIGS. 3A-B): significantly extends
- efficacy on OS and PFS, Kaplan-Meier curve ([5]; KRAS wildtype mCRC patients, FIGS. 3C-D): has no efficacy
- extension of median survival ([5]; Kaplan-Meier, mCRC patients with T2DM, P=0.022, FIG. 2): 11.3 months
- OS HR (95% CI) [5, 9]: 0.869
- PFS HR (95% CI) [5, 9]: 1.074
- OS HR (95% CI) [5, 10]: 0.596
- PFS HR (95% CI) [5, 10]: 0.562
- OS HR (95% CI) [5, 11]: 0.582
- PFS HR (95% CI) [5, 11]: 0.884
- OS HR (95% CI) [5, 12]: 0.702
- PFS HR (95% CI) [5, 12]: 0.555
- OS HR (95% CI) [5, 13]: 1.487
- PFS HR (95% CI) [5, 13]: 1.194
- OS HR (95% CI) [5, 14]: 1.151
- PFS HR (95% CI) [5, 14]: 0.949
- OS HR (95% CI) [5, 15]: 1.008
- PFS HR (95% CI) [5, 15]: 0.818
- OS HR (95% CI) [5, 16]: 0.676
- PFS HR (95% CI) [5, 16]: 0.644
- OS HR (95% CI) [5, 17]: 0.629
- PFS HR (95% CI) [5, 17]: 0.811
- OS HR (95% CI) [5, 18]: 0.982
- PFS HR (95% CI) [5, 18]: 0.823
- OS HR (95% CI) [5, 19]: 0.475
- PFS HR (95% CI) [5, 19]: 0.544
- OS HR (95% CI) [5, 20]: 0.729
- PFS HR (95% CI) [5, 20]: 0.622
- OS HR (95% CI) [5, 21]: 0.944
- PFS HR (95% CI) [5, 21]: 0.697
- OS HR (95% CI) [5, 22]: 0.673
- PFS HR (95% CI) [5, 22]: 0.732
- OS HR (95% CI) [5, 23]: 0.356
- PFS HR (95% CI) [5, 23]: 0.630
- tumor size [6]: obviously inhibit
- tumor weight [6]: obviously inhibit
- inhibiting effect on cell viability after interference of KRAS (G13D) expression [7]: down-regulate the inhibiting effect
